This note sets out measurements from publication PMC8933034, “6-Amino-2,4,5-trimethylpyridin-3-ol and 2-amino-4,6-dimethylpyrimidin-5-ol derivatives as selective fibroblast growth factor receptor 4 inhibitors: design, synthesis, molecular docking, and anti-hepatocellular carcinoma efficacy evaluation” (Journal of Enzyme Inhibition and Medicinal Chemistry, 2022).

For one data set, the target named is T1, FGFR2 (Homo sapiens, UniProt P21802).
T1 construct: purchased Promega, WI, USA
The data set can be described thus: FGFR2 ADP-glow kinase assay. The data set is classed as biochemical. As to the method: (§1) FGFR1 ∼ 3 kinase assays were performed using the adenosine diphosphate (ADP)-glow kinase assay kit of FGFR1, FGFR2, and FGFR3 kinase enzyme systems (Promega, WI, USA) in accordance with the manufacturer’s instructions. […] The reaction was carried out at 25 °C for 1 h in a total volume of 25 µL. Subsequently, 25 µL of ADP-Glow reagent was added to the mixture, and then incubated for 40 min at 25 °C. After the addition of 50 µL of ADP detection reagents for 30 min at 25 °C, luminescence was measured using a Fluostar Omega microplate reader (BMG LABTECH GmbH, Ortenberg, Germany).

For a further data set, the system named is Hep3B cells. The data set can be described thus: Cell proliferation assay (MTT), Hep3B. The data set is classed as cell-based, human. On the procedure: (§2) Human HCC cell lines, Hep3B and Huh7 were obtained from American Type Culture Collection (ATCC, Manassas, VA, USA). An H6c7 human normal pancreatic duct epithelial cell line was purchased from Kerafast (Boston, MA, USA). Hep3B and Huh7 cells were cultured in Dulbecco′s Modified Eagle′s Medium (DMEM) (Hyclone, Logan, UT, USA). The media were supplemented with 10% foetal bovine serum (FBS) (Gibco/ThermoFisher Scientific) and 1% penicillin/streptomycin (Gibco/ThermoFisher Scientific). H6c7 cells were maintained in a keratinocyte serum-free medium supplemented with a recombinant […] growth factor (rEGF) and bovine pituitary extract (Gibco/ThermoFisher Scientific). All the cells were incubated at 37 °C under a 5% CO2 atmosphere.
(§3) Cells were seeded at a density of 5000 cells/well in a 96-well plate. After overnight incubation, the cells were serum-starved using 1% FBS for 24 h. The next day, the cells were pre-treated with the different concentrations (0.1, 1, 3, 10, 30, 100 µM) of drugs for 1 h prior to the treatment with serum (10% FBS). After 48 h of incubation, 3–(4,5-dimethylthiazol-2-yl)-2,5-diphenyltetrazolium bromide (MTT) dye solution was added and incubated for 4 h. Next, DMSO was added, and after 30 min, the colour intensities were measured using a microplate reader (Versamax, Molecular Devices, Inc., USA) at 490 nm.

The next data set relates to Huh7 cells. The data set can be described thus: Cell proliferation assay (MTT), Huh7. The data set is classed as cell-based, human. On the procedure:
as §2, §3

The next data set concerns the target T2, FGFR1 (Homo sapiens, UniProt P11362).
T2 construct: purchased Promega, WI, USA
As to the kind of experiment: FGFR1 ADP-glow kinase assay. The data set is classed as biochemical. On the procedure:
as §1

Data set [1] relates to Hep3B-xenografted CAM tumour model. The data set can be described thus: CAM (chick chorioallantoic membrane) tumour model implanted with Hep3B cells. The data set is classed as in vivo. On the procedure: Fertile chicken eggs were purchased from Byeolbichon Farm (Gyeongbuk, South Korea) and incubated at 37 °C and under 55% relative humidity. On the 9th day of egg incubation (post-fertilization), false air sac was generated on the relatively flat side of eggs by a negative pressure technique. A small window (1 cm^2) was created on the false air sac surface of the eggs by separating the shell and membrane beneath (technique) using a grinding wheel (Dremel, Racine, WI, USA). Next, Hep3B cells were loaded at a density of 1.5 × 10^6 cells/CAM with or without compound. After four days of drug treatment, the tumour weight, number of vessel branch points within the tumour region were analysed.

A further data set has as its target T3, FGFR3 (Homo sapiens, UniProt P22607).
T3 construct: purchased Promega, WI, USA
As to the kind of experiment: FGFR3 ADP-glow kinase assay. The data set is classed as biochemical. As to the method:
as §1

The next data set concerns the target T4, human FGFR4 kinase (Homo sapiens, UniProt P22455).
T4 construct: purchased Reaction Biology Corporation (Malvern, PA, USA), contract assay service
As to the kind of experiment: FGFR4 kinase assay (Kinase HotSpot, Reaction Biology Corp.). The data set is classed as biochemical. On the procedure: A FGFR4 kinase assay was performed at the Reaction Biology Corporation (Malvern, PA, USA) using a Kinase HotSpotSM assay platform (www.reactionbiology.com, last accessed at 19/10/2020). Briefly, human FGFR4 kinase (5–10 mU), peptide substrate, and poly[Glu:Tyr] (4:1) 0.2 mg/ml were prepared in a reaction buffer with a final volume of 25 µL. The compounds were delivered into the reaction, followed ∼20 min. later by the addition of a mixture of ATP and [γ-^33P-ATP] (specific activity approx. 500 cpm/pmol, concentration as required) to a final concentration of 10 µM. After incubation for 40 min. at 25 °C, the reaction was stopped by the addition of a 3% phosphoric acid solution. Then, the reaction was spotted onto a P30 filtermat, and unbound phosphate was removed by washing 3 times for 5 min in 75 mM phosphoric acid and once in methanol prior to drying and scintillation counting. […] IC50 values and curve fits were obtained using GraphPad Prism 5 software.

Data set [2] can be described thus: Cytotoxicity assay (MTT), H6c7. To be noted: human, H6c7 normal pancreatic duct epithelial cells, 48 h treatment, mean ± SEM of three independent experiments, read-out: IC50 on cell viability (cytotoxicity), H6c7. The data set is classed as cell-based. On the procedure: as §2
The cytotoxicity of the compounds was assessed by measuring the cell viability decrease using the MTT staining method. Briefly, H6c7 cells were seeded in a 96-well plate (Falcon, USA) at a density of 4 × 10^4 cells per well in keratinocyte serum-free medium. After 24 h, Cells were incubated with different concentrations (0.1, 1, 3, 10, 30, and 100) µM of each compound for 48 h, and the cell viability was measured using MTT assay. Optical density was measured at 540 nm using a microplate reader (BMG LABTECH).

The mark [3] stands for this setting: four days after Hep3B xenograft on CAM.
[4] abbreviates: number of new vessel branches on CAM, four days.

T4 sequence (P22455 22-802): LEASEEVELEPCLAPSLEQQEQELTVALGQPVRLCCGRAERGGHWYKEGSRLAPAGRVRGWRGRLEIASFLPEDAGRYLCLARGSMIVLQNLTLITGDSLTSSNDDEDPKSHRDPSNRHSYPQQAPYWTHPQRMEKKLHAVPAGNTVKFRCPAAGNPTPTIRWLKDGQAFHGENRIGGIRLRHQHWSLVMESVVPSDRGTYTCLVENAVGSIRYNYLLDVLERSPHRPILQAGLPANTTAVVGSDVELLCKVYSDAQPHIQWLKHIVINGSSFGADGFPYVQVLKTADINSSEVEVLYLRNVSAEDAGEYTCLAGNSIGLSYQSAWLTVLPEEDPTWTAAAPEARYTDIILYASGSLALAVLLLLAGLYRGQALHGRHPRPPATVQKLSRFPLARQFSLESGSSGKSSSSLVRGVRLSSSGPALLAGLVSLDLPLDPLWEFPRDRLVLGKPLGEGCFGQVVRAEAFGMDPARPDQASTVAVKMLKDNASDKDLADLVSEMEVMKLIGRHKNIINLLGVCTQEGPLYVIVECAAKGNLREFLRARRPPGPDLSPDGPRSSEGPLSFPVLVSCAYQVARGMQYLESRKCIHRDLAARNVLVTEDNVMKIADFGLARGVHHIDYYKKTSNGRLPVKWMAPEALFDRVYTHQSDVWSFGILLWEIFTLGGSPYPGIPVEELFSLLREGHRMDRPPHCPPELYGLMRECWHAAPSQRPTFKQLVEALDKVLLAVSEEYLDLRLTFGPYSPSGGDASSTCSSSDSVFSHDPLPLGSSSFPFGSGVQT
T1 sequence (P21802 22-821): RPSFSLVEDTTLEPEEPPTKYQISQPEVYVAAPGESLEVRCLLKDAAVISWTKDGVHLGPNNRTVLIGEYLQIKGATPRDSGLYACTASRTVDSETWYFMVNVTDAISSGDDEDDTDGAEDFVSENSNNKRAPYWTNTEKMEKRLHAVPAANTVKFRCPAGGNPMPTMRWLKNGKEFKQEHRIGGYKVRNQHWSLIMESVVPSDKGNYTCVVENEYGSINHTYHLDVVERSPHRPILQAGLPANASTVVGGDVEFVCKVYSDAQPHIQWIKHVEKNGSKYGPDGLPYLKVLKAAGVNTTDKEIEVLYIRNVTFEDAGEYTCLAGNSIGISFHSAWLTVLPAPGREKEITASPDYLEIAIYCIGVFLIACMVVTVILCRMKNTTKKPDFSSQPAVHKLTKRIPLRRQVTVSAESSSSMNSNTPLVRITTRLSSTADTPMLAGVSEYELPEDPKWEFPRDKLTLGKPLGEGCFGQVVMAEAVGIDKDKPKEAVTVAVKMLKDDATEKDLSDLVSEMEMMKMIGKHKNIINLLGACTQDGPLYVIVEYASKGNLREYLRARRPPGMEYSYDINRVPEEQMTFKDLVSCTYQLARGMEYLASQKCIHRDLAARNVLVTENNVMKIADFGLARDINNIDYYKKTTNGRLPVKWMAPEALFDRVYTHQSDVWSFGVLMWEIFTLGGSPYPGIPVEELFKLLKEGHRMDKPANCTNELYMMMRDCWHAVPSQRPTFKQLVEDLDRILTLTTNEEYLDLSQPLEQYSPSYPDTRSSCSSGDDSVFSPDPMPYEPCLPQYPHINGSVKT
T3 sequence (P22607 23-806): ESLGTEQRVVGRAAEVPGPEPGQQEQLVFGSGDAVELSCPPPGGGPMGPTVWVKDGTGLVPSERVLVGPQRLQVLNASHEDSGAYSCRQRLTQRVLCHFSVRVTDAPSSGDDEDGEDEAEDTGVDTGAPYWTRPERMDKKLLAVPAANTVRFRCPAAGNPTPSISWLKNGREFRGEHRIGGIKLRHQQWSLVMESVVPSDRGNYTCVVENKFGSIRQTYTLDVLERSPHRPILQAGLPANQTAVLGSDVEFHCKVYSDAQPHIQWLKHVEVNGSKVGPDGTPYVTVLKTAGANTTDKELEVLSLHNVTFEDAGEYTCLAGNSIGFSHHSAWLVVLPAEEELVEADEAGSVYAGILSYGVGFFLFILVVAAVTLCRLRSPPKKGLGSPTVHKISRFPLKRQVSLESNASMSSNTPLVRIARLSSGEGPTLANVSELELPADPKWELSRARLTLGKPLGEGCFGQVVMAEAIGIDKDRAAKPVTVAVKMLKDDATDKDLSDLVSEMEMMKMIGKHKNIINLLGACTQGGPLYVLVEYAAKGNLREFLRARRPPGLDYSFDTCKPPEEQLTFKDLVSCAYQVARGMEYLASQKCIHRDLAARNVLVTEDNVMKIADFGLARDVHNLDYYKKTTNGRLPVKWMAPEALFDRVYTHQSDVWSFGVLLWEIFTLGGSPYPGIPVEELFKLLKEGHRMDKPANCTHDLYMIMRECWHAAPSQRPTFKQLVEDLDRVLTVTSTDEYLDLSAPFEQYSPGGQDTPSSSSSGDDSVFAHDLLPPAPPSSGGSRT
T2 sequence (P11362 22-822): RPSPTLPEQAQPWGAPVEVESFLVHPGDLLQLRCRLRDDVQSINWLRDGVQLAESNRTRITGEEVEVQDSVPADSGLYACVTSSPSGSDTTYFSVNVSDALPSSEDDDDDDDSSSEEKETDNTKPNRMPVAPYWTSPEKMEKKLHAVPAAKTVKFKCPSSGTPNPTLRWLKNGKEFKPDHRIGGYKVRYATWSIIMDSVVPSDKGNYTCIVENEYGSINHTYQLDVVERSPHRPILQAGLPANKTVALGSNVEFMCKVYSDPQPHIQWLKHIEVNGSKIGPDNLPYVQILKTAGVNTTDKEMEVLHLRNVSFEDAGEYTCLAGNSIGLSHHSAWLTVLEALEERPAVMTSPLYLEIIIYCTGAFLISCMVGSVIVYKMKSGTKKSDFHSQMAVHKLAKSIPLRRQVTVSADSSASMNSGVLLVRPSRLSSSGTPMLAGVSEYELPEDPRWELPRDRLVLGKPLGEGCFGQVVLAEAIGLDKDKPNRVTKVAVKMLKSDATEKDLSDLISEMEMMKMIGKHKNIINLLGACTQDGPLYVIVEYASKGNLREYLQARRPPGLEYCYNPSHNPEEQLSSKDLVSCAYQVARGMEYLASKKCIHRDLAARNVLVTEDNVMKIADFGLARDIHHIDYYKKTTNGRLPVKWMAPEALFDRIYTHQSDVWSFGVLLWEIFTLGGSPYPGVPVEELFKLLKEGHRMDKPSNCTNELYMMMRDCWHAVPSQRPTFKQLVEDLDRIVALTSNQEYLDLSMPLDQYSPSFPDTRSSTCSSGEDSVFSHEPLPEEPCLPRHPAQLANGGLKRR

Consider `C=CC(=O)Nc1cc(F)cc(Cl)c1Nc1nc(C)c(OCc2c(F)c(OC)cc(OC)c2F)c(C)n1` [Compound 6O, N-(3-Chloro-2-((5-((2,6-difluoro-3,5-dimethoxybenzyl)oxy)-4,6-dimethylpyrimidin-2-yl)amino)-5-fluorophenyl)acrylamide], for which the “Ratio against FGFR4 (FGFR2)” value on FGFR2 (ratio of FGFR2 to FGFR4 inhibitory activity) is listed as 471.1. The IC50 on FGFR2 (three independent experiments) is 35.5 µM; in the data set with Hep3B cells (Homo sapiens, Hep3B, 48 h treatment, mean ± SEM of three independent experiments) it was 4.5 µM; in the data set with Huh7 cells (Homo sapiens, Huh-7, 48 h treatment, mean ± SEM of three independent experiments), 12.6 ± 1.3 µM; against FGFR1 (three independent experiments), greater than 50 µM; on FGFR3 (three independent experiments) it was greater than 30 µM; against human FGFR4 kinase (7 different concentrations, three independent experiments), 75.3 nM. Further, in the data set on Hep3B cells (48 h), the “fold less potent than compound 1, Hep3B IC50” value amounted to 5 fold. For the same compound, the “difference of anti-proliferative activity between Hep3B and Huh7” value in the data set on Huh7 cells (Huh7 versus Hep3B, 48 h) is given as 2.8 fold. For the same compound, the “Ratio against FGFR4 (FGFR1)” value on FGFR1 (ratio of FGFR1 to FGFR4 inhibitory activity) is greater than 663.8. Further, in data set [1] (setting [3]), the “inhibitory effect on the tumour weight compared with compound 1” value is on record as “slightly weaker”. Further, the tumour growth entry in data set [1] (setting [3]) was “dose-dependently inhibited”. Further, the “antiangiogenic effect compared with compound 1” value in data set [1] (setting [4]) was “slightly weaker”. In data set [1] (setting [4]), the tumour-induced angiogenesis entry is “significantly blocked”. The “Ratio against FGFR4 (FGFR3)” value on FGFR3 (ratio of FGFR3 to FGFR4 inhibitory activity) was greater than 398.3. Moreover, testing at 1 µM against human FGFR4 kinase (fixed concentration 1 μM, mean of two independent experiments) gave an inhibition of 96.7%. Also, the “FGFR4 selectivity compared to BLU9931 (1)” value at human FGFR4 kinase (from Table 1 ratios) is “at least 8 times”. In data set [2], the IC50 at 48 h was 18 µM.
